Data: US20210267944A1 (BioXcel Therapeutics, Inc., priority 2018, published 2021)
Counter-ions that a name gives are not always drawn. Like-named read-outs stand apart in the source and are kept apart here.

Conditions: for Diastolic blood pressure Mean ± SD / Diastolic blood pressure Median / Diastolic blood pressure Min / Heart rate Max / Heart rate Mean ± SD / Heart rate Median / Heart rate Min / Diastolic blood pressure Max / Systolic blood pressure, Max / Systolic blood pressure, Mean ± SD / Systolic blood pressure, Median / Systolic blood pressure, Min: opioid withdrawal patients
Text: The participants were continuously monitored by the site personnel, including blood pressure and heart rate, from the start of the infusion through resolution of sedation and/or any adverse effects on blood pressure or heart rate. An electrocardiogram was obtained at screening, pre-infusion and upon resolution of sedation, a predetermined reduction in COWS or return to baseline.

[1] = Day-1, 30 min. post Infusion, n=11
[2] = Day-2, 30 min. post Infusion, n=5
[3] = opioid withdrawal, during infusion

## Cc1cccc([C@H](C)c2cnc[nH]2)c1C [dexmedetomidine hydrochloride]
Day-2, 01:15 Hr
  Diastolic blood pressure Mean ± SD: 78.5 ± 22.5 mm of Hg
  Diastolic blood pressure Median: 78.5 mm of Hg
  Diastolic blood pressure Min: 56 mm of Hg
  Heart rate Max: 100 beats/minutes
  Heart rate Mean ± SD: 88 ± 12 beats/minutes
  Heart rate Median: 88 beats/minutes
  Heart rate Min: 76 beats/minutes
Day-2, 01:30 Hr
  Diastolic blood pressure Max: 75 mm of Hg
  Diastolic blood pressure Mean ± SD: 75 mm of Hg
  Diastolic blood pressure Median: 75 mm of Hg
  Diastolic blood pressure Min: 75 mm of Hg
  Heart rate Max: 73 beats/minutes
  Heart rate Mean ± SD: 73 beats/minutes
  Heart rate Median: 73 beats/minutes
  Heart rate Min: 73 beats/minutes
Day-2, 01:45 Hr
  Diastolic blood pressure Max: 89 mm of Hg
  Diastolic blood pressure Mean ± SD: 89 mm of Hg
  Diastolic blood pressure Median: 89 mm of Hg
  Diastolic blood pressure Min: 89 mm of Hg
  Heart rate Max: 92 beats/minutes
  Heart rate Mean ± SD: 92 beats/minutes
  Heart rate Median: 92 beats/minutes
  Heart rate Min: 92 beats/minutes
Day-2, 02:00 Hr
  Diastolic blood pressure Max: 90 mm of Hg
  Diastolic blood pressure Mean ± SD: 90 mm of Hg
  Diastolic blood pressure Median: 90 mm of Hg
  Diastolic blood pressure Min: 90 mm of Hg
  Heart rate Max: 94 beats/minutes
  Heart rate Mean ± SD: 94 beats/minutes
  Heart rate Median: 94 beats/minutes
  Heart rate Min: 94 beats/minutes
Day-2, 30 min. post Infusion
  Diastolic blood pressure Max: 98 mm of Hg
  Diastolic blood pressure Mean ± SD: 84.4 ± 9.24 mm of Hg
  Diastolic blood pressure Median: 86 mm of Hg
  Diastolic blood pressure Min: 70 mm of Hg
  Heart rate Max: 90 beats/minutes
  Heart rate Mean ± SD: 70.8 ± 15.72 beats/minutes
  Heart rate Median: 60 beats/minutes
  Heart rate Min: 56 beats/minutes
Opioid withdrawal
  all the vital signs values: within clinically acceptable limits
Day-1, 00:00 Hr, n=11
  Systolic blood pressure, Max: 178 mm of Hg
  Systolic blood pressure, Mean ± SD: 134 ± 15.77 mm of Hg
  Systolic blood pressure, Median: 127 mm of Hg
  Systolic blood pressure, Min: 120 mm of Hg
Day-1, 00:15 Hr, n=11
  Systolic blood pressure, Max: 157 mm of Hg
  Systolic blood pressure, Mean ± SD: 129.73 ± 13.68 mm of Hg
  Systolic blood pressure, Median: 127 mm of Hg
  Systolic blood pressure, Min: 112 mm of Hg
Day-1, 00:30 Hr, n=9
  Systolic blood pressure, Max: 160 mm of Hg
  Systolic blood pressure, Mean ± SD: 124.78 ± 15.55 mm of Hg
  Systolic blood pressure, Median: 128 mm of Hg
  Systolic blood pressure, Min: 107 mm of Hg
Day-1, 00:45 Hr, n=6
  Systolic blood pressure, Max: 125 mm of Hg
  Systolic blood pressure, Mean ± SD: 113 ± 8.24 mm of Hg
  Systolic blood pressure, Median: 114 mm of Hg
  Systolic blood pressure, Min: 100 mm of Hg
Day-1, 01:00 Hr, n=5
  Systolic blood pressure, Max: 120 mm of Hg
  Systolic blood pressure, Mean ± SD: 114 ± 4.85 mm of Hg
  Systolic blood pressure, Median: 115 mm of Hg
  Systolic blood pressure, Min: 107 mm of Hg
Day-1, 01:15 Hr, n=3
  Systolic blood pressure, Max: 112 mm of Hg
  Systolic blood pressure, Mean ± SD: 110 ± 1.63 mm of Hg
  Systolic blood pressure, Median: 110 mm of Hg
  Systolic blood pressure, Min: 108 mm of Hg
Day-1, 01:30 Hr, n=2
  Systolic blood pressure, Max: 112 mm of Hg
  Systolic blood pressure, Mean ± SD: 106.5 ± 5.5 mm of Hg
  Systolic blood pressure, Median: 106.5 mm of Hg
  Systolic blood pressure, Min: 101 mm of Hg
[1]
  Systolic blood pressure, Max: 160 mm of Hg
  Systolic blood pressure, Mean ± SD: 130.91 ± 18.09 mm of Hg
  Systolic blood pressure, Median: 129 mm of Hg
  Systolic blood pressure, Min: 108 mm of Hg
Day-1, Screening, n=11
  Systolic blood pressure, Max: 170 mm of Hg
  Systolic blood pressure, Mean ± SD: 130.36 ± 16.92 mm of Hg
  Systolic blood pressure, Median: 127 mm of Hg
  Systolic blood pressure, Min: 110 mm of Hg
Day-2, 00:00 Hr, n=5
  Systolic blood pressure, Max: 141 mm of Hg
  Systolic blood pressure, Mean ± SD: 127.2 ± 11.37 mm of Hg
  Systolic blood pressure, Median: 133 mm of Hg
  Systolic blood pressure, Min: 109 mm of Hg
Day-2, 00:15 Hr, n=5
  Systolic blood pressure, Max: 139 mm of Hg
  Systolic blood pressure, Mean ± SD: 123.6 ± 13.41 mm of Hg
  Systolic blood pressure, Median: 131 mm of Hg
  Systolic blood pressure, Min: 103 mm of Hg
Day-2, 00:30 Hr, n=5
  Systolic blood pressure, Max: 137 mm of Hg
  Systolic blood pressure, Mean ± SD: 121.6 ± 12.15 mm of Hg
  Systolic blood pressure, Median: 125 mm of Hg
  Systolic blood pressure, Min: 106 mm of Hg
Day-2, 00:45 Hr, n=4
  Systolic blood pressure, Max: 131 mm of Hg
  Systolic blood pressure, Mean ± SD: 123.15 ± 9.17 mm of Hg
  Systolic blood pressure, Median: 128 mm of Hg
  Systolic blood pressure, Min: 108 mm of Hg
Day-2, 01:00 Hr, n=3
  Systolic blood pressure, Max: 132 mm of Hg
  Systolic blood pressure, Mean ± SD: 124.33 ± 9.46 mm of Hg
  Systolic blood pressure, Median: 130 mm of Hg
  Systolic blood pressure, Min: 111 mm of Hg
Day-2, 01:15 Hr, n=2
  Systolic blood pressure, Max: 130 mm of Hg
  Systolic blood pressure, Mean ± SD: 115.5 ± 14.5 mm of Hg
  Systolic blood pressure, Median: 115.5 mm of Hg
  Systolic blood pressure, Min: 101 mm of Hg
Day-2, 01:30 Hr, n=1
  Systolic blood pressure, Mean ± SD: 114 mm of Hg
  Systolic blood pressure, Median: 114 mm of Hg
Day-2, 01:45 Hr, n=1
  Systolic blood pressure, Mean ± SD: 112 mm of Hg
  Systolic blood pressure, Median: 112 mm of Hg
Day-2, 02:00 Hr, n=1
  Systolic blood pressure, Mean ± SD: 114 mm of Hg
  Systolic blood pressure, Median: 114 mm of Hg
[2]
  Systolic blood pressure, Max: 146 mm of Hg
  Systolic blood pressure, Mean ± SD: 127.6 ± 13.1 mm of Hg
  Systolic blood pressure, Median: 130 mm of Hg
  Systolic blood pressure, Min: 110 mm of Hg
[3]
  Diastolic blood pressure mean values, in words: within clinically acceptable limits
  Heart rate mean values, in words: within clinically acceptable limits
  Systolic blood pressure mean values, in words: within clinically acceptable limits
Opioid withdrawal, one patient, after 15 minutes
  heart rate at which stopping criteria was met: ≤ 50
